# Measured values taken from article PMC8504577, “Evaluation of a Clinically Relevant Drug–Drug Interaction Between Rosuvastatin and Clopidogrel and the Risk of Hepatotoxicity” (Frontiers in Pharmacology, 2021).
# “Also recorded” adds a separate entry of the source.
# Key:
# OATP1B1 = molecular target: T1, OATP1B1 (Homo sapiens, UniProt Q9Y6L6); test: cell-based
# T1 sequence (Q9Y6L6 1-691): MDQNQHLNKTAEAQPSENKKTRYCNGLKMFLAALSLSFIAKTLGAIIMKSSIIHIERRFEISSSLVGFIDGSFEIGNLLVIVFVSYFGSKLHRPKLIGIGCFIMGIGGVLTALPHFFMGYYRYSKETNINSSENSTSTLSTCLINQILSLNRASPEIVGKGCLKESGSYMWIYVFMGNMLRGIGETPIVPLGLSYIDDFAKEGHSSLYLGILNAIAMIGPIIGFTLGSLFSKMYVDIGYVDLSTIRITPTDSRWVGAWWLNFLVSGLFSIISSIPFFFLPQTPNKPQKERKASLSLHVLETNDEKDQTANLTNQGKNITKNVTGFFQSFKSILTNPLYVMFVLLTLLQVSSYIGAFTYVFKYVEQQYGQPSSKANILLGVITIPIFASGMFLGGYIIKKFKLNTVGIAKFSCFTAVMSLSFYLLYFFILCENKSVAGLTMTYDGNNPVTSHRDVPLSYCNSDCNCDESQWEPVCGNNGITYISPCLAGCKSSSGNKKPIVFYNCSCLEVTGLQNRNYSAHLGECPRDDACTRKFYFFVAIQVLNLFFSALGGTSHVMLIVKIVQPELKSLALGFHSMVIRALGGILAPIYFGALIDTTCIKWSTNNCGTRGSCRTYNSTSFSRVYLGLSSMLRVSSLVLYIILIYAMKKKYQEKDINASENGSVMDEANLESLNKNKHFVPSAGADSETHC
# Description: (§1) The OATP1B1, OATP1B3, and mock cells were cultured in the DMEM medium containing 10% fetal bovine serum, penicillin–streptomycin solution (100 U/mL and 0.1 mg/ml), and 0.5 mg/ml geneticin at 37°C in the presence of 5% CO2. The cells were seeded in a 24-well plate at a density of 4×10^5 cells/well and grown for 80–90% confluence. […] After washing the cells three times with transporter buffer at 4°C, the cells were lysed with liquid nitrogen. The lysates were precipitated with methanol and centrifuged at 12,000 rpm at 4°C for 5 min. The supernatant was analyzed by LC-MS/MS. Protein concentration was determined using the Pierce® BCA Protein Assay Kit. All experiments were performed in triplicate.
# (§2) Phoenix WinNonlin® 7.1 (Pharsight Corporation, Mountain View, CA, United States) was used to calculate the pharmacokinetic parameters by the noncompartmental method. IC50 values were obtained by a computer-generated nonlinear least squares fit using GraphPad Prism 8.1 (GraphPad Software, San Diego, CA, United States). Statistical analysis was performed using SPSS ver. 22.0 (IBM, Chicago, IL, United States). The results are presented as mean ± S.D., unless otherwise stated. After testing for the homogeneity of variance, statistical analysis was performed with a one-way ANOVA followed by the LSD post hoc test or unpaired Student’s t-test. A probability (p) of less than 0.05, 0.01, and 0.001 was considered to be statistically significant, highly significant, and extremely significant, respectively.
# OATP1B3 = molecular target: T2, OATP1B3 (Homo sapiens, UniProt Q9NPD5); test: cell-based
# T2 sequence (Q9NPD5 1-702): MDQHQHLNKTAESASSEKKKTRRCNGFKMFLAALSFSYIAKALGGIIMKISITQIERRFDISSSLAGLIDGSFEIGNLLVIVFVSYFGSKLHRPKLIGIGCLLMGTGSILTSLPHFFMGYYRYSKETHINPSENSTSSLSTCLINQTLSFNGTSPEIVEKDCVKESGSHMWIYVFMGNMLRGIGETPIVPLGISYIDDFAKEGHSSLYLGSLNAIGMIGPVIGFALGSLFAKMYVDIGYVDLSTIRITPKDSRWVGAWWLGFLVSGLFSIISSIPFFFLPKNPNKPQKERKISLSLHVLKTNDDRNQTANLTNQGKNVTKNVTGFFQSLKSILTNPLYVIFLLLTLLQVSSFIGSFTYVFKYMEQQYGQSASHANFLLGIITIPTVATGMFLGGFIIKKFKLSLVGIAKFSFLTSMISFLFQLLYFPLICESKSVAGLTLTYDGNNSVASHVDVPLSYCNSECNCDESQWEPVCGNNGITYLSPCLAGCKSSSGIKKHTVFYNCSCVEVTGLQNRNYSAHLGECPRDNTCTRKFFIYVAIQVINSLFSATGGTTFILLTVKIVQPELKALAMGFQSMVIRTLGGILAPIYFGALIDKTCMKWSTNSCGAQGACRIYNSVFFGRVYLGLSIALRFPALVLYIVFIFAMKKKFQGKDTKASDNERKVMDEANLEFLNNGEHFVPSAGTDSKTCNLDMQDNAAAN
# Description: as §1, §2
# rats = test: Biochemical examination of liver function indices in rats; format: in vivo, Sprague-Dawley rats; conditions: rat plasma
# Description: After the last sample in the plasma pharmacokinetic study, all rats were deeply anesthetized and exsanguinated by severing the abdominal aorta. Blood and liver samples were harvested. The plasma was used for the assay of alanine aminotransferase (ALT), aspartate aminotransferase (AST), total bilirubin (TBIL), unconjugated bilirubin (IBIL), and conjugated bilirubin (DBIL) by an automatic analyzer (Beckman Coulter, Brea, CA, United States).
# [1] = Group II single i.v. dose RSV + vehicle control
# [2] = Group IV single p.o. dose RSV + vehicle control
IC50 (OATP1B1),IC50 (OATP1B3),SMILES,"Inhibition of OATP1B3-mediated RSV transport (OATP1B3; 1 μM RSV, CPC 0.05–50 μM)",ALT (rats; [1]),AST (rats; [1]),DBIL (rats; [1]),IBIL (rats; [1]),TBIL (rats; [1]),ALT (rats; [2]),AST (rats; [2]),DBIL (rats; [2]),IBIL (rats; [2]),TBIL (rats; [2])
27.4 µM,> 50 µM,"COC(=O)[C@H](c1ccccc1Cl)N1CCc2sccc2C1 [CP, clopidogrel]",did not inhibit; also recorded: did not affect,–,–,–,–,–,–,–,–,–,–
–,–,"CC(C)c1nc(N(C)S(C)(=O)=O)nc(-c2ccc(F)cc2)c1/C=C/[C@@H](O)C[C@@H](O)CC(=O)O [RSV, rosuvastatin]",–,54.00 ± 14.17 U/L,210.50 ± 36.59 U/L,1.12 ± 0.11 µmol/L,0.88 ± 0.18 µmol/L,2.00 ± 0.22 µmol/L,52.00 ± 6.68 U/L,212.50 ± 33.72 U/L,0.58 ± 0.33 µmol/L,0.57 ± 0.36 µmol/L,1.13 ± 0.42 µmol/L
